Structures are written as SMILES.

The nature of the first data set: RP, Phenomenex Luna C18, 150 × 4.6 mm, 3 µm, 25 °C, 0.5 mL/min, estimated dead time 3.2 min; A: water + 0.1% formic acid, pH 3; B: acetonitrile + 0.1% formic acid, pH 3; gradient (min/%B) 0/0 30/30 35/40 50/80 52/80 60/0 65/0. Particulars: stereoisomer not certain.
For the compound `O=S(=O)(O)Oc1c(O)cccc1O` [Pyrogallol 2-O-sulfate], the LC retention time was 18.4 min.
On the same count and under the same terms, the same measure for `O=C(O)c1cc(O)c(O)c(O)c1` [Gallic acid]: 5.35 min; for `COc1ccc(C(=O)O)cc1OC` [Veratric acid]: 24.9 min.
As for `O=c1ccc2c(O)c3ccoc3cc2o1` [Bergaptol], the LC retention time was 37.6 min.
The same measure, in the same setting: the same measure for `O=c1oc2cc(O)ccc2c2ccccc12` [Urolithin B]: 44.4 min; for `Cn1cnc2c1c(=O)[nH]c(=O)n2C` [Theobromine]: 6.29 min.
Still for that read-out and setting: the same measure for `Oc1cc(O)c2c(c1)OC1(c3ccc(O)c(O)c3)Oc3cc(O)c4c(c3C2C1O)OC(c1ccc(O)c(O)c1)C(O)C4` (stereo not drawn) [Procyanidin A2]: 24.4 min.
Take `CC12CCc3occc3C1CCC13CC(CCC12)C(O)(CO)C3` (stereo not drawn) [Cafestol]: the LC retention time is 50 min.

A further data set can be described thus: RP, Merck LiChrospher RP-18, 250 × 4 mm, 5 µm, 35 °C, 0.3 mL/min, estimated dead time 6.7 min; A: water + 0.5% formic acid; B: acetonitrile + 0.5% formic acid; gradient (min/%B) 0/5 10/5 30/15 45/20 65/20 95/54 110/63 115/5 135/5. Particulars: stereoisomer not certain.
With `O=C(O)c1cc(O)c(O)c(O)c1` [Gallic acid], the LC retention time is 16.5 min.

A short description of the next data set: RP, Merck Supelco SUPELCOSIL LC-C18, 250 × 4.6 mm, 5 µm, 40 °C, 1 mL/min, estimated dead time 2.6 min; A: water + 0.1% trifluoroacetic acid, pH 2; B: acetonitrile + 0.1% trifluoroacetic acid, pH 2; gradient (min/%B) 0/5 45/35 47/75 49/35 50/5. Particulars: stereoisomer not certain.
As for `O=C(O)c1cc(O)c(O)c(O)c1` [Gallic acid], the LC retention time is 5.2 min.

A short description of a further data set: RP, Phenomenex Synergi Hydro-RP, 250 × 2 mm, 4 µm, 25 °C, 0.2 mL/min, estimated dead time 2.5 min; A: water + 0.1% formic acid, pH 3; B: acetonitrile + 0.1% formic acid, pH 3; gradient (min/%B) 0/0.5 7/0.5 12/12.5 25/16.3 47/35 48/65 50/65 50.1/0.5. Particulars: stereoisomer not certain.
For the compound `O=C(O)c1cc(O)c(O)c(O)c1` [Gallic acid], the LC retention time was 13.9 min.
On the same count and under the same terms, the result for `COc1ccc(C(=O)O)cc1OC` [Veratric acid] reads 33 min.

A short description of a further data set: RP, 100 × 0.5 mm, 2.7 µm, 45 °C, 0.015 mL/min, estimated dead time 0.83 min; A: water + 0.9% formic acid; B: acetonitrile + 0.9% formic acid; gradient (min/%B) 0/1 0.5/1 4/95 4.5/1 5/1. Particulars: stereoisomer not certain.
Consider `O=S(=O)(O)Oc1c(O)cccc1O` [Pyrogallol 2-O-sulfate], for which the LC retention time is 2.2 min.
Same read-out and setting: the same measure for `COc1ccc(C(=O)O)cc1OC` [Veratric acid]: 2.4 min; for `O=c1ccc2c(O)c3ccoc3cc2o1` [Bergaptol]: 3.08 min; for `C[n+]1cccc(C(=O)[O-])c1` [Trigonelline]: 2.72 min.
Turning to `O=c1oc2cc(O)ccc2c2ccccc12` [Urolithin B], the LC retention time was 3.47 min.
For the compound `Cn1cnc2c1c(=O)[nH]c(=O)n2C` [Theobromine], the LC retention time is 2.05 min.
Same read-out and setting: the same measure for `Oc1cc(O)c2c(c1)OC1(c3ccc(O)c(O)c3)Oc3cc(O)c4c(c3C2C1O)OC(c1ccc(O)c(O)c1)C(O)C4` (stereo not drawn) [Procyanidin A2]: 2.53 min; for `CC12CCc3occc3C1CCC13CC(CCC12)C(O)(CO)C3` (stereo not drawn) [Cafestol]: 4.04 min.

The nature of the next data set: RP, Waters Atlantis T3, 100 × 2.1 mm, 3 µm, 40 °C, 0.3 mL/min, estimated dead time 0.73 min; A: water + 0.1% trifluoroacetic acid, pH 2; B: acetonitrile + 0.1% trifluoroacetic acid, pH 2; gradient (min/%B) 0/10 1/10 6/40 7/50 8/50 14/70 16/80 20/10 25/10. Particulars: stereoisomer not certain.
`O=C(O)c1cc(O)c(O)c(O)c1` [Gallic acid]: the LC retention time is 1.56 min.

Another data set is described as follows: RP, Phenomenex Kinetex EVO C18, 100 × 2.1 mm, 2.6 µm, 40 °C, 0.4 mL/min, estimated dead time 0.55 min; A: water + 0.2% formic acid; B: acetonitrile + 0.2% formic acid; gradient (min/%B) 0/5 0.5/5 7/95 8/95 8.5/5 12/5. Particulars: stereoisomer not certain.
For `O=C(O)c1cc(O)c(O)c(O)c1` [Gallic acid], the LC retention time was 0.96 min.

A short description of another data set: RP, Waters ACQUITY UPLC HSS T3, 100 × 2.1 mm, 1.8 µm, 30 °C, 0.4 mL/min, estimated dead time 0.55 min; A: water + 0.1% formic acid, pH 3; B: acetonitrile + 0.1% formic acid, pH 3; gradient (min/%B) 0/0 2/0 15/100 22/100 22.1/0 26/0. Particulars: stereoisomer not certain.
Regarding `O=S(=O)(O)Oc1c(O)cccc1O` [Pyrogallol 2-O-sulfate], the LC retention time was 6.13 min.
The same measure, in the same setting: the result for `O=C(O)c1cc(O)c(O)c(O)c1` [Gallic acid] reads 4.98 min.
Same read-out and setting: the result for `COc1ccc(C(=O)O)cc1OC` [Veratric acid] reads 9.65 min; that for `O=c1ccc2c(O)c3ccoc3cc2o1` [Bergaptol], 11 min; that for `C[n+]1cccc(C(=O)[O-])c1` [Trigonelline], 0.96 min.
For `O=c1oc2cc(O)ccc2c2ccccc12` [Urolithin B], the LC retention time is 12.2 min.
Same read-out and setting: the same measure for `Cn1cnc2c1c(=O)[nH]c(=O)n2C` [Theobromine]: 7.1 min; for `Oc1cc(O)c2c(c1)OC1(c3ccc(O)c(O)c3)Oc3cc(O)c4c(c3C2C1O)OC(c1ccc(O)c(O)c1)C(O)C4` (stereo not drawn) [Procyanidin A2]: 9.38 min.
Take `CC12CCc3occc3C1CCC13CC(CCC12)C(O)(CO)C3` (stereo not drawn) [Cafestol]: the LC retention time was 13.9 min.

A further data set is described as follows: RP, Phenomenex Synergi Hydro-RP, 150 × 2 mm, 4 µm, 30 °C, 0.5 mL/min, estimated dead time 0.6 min; A: water + 0.1% formic acid, pH 3; B: acetonitrile + 0.1% formic acid, pH 3; gradient (min/%B) 0/5 1/5 35/45 40/100 45/100. Particulars: stereoisomer not certain.
With `O=c1ccc2c(O)c3ccoc3cc2o1` [Bergaptol], the LC retention time is 21.6 min.
The same measure, in the same setting: the result for `Oc1cc(O)c2c(c1)OC1(c3ccc(O)c(O)c3)Oc3cc(O)c4c(c3C2C1O)OC(c1ccc(O)c(O)c1)C(O)C4` (stereo not drawn) [Procyanidin A2] reads 16 min.
On the same count and under the same terms, the result for `CC12CCc3occc3C1CCC13CC(CCC12)C(O)(CO)C3` (stereo not drawn) [Cafestol] reads 37.9 min.

A further data set is described as follows: RP, Waters ACQUITY UPLC BEH Shield RP18, 150 × 2.1 mm, 1.7 µm, 40 °C, 0.4 mL/min, estimated dead time 0.83 min; A: water + 0.1% formic acid, pH 3; B: acetonitrile + 0.1% formic acid, pH 3; gradient (min/%B) 0/0 30/50 31/100 37/100 37.1/0. Particulars: stereoisomer not certain.
For the compound `O=S(=O)(O)Oc1c(O)cccc1O` [Pyrogallol 2-O-sulfate], the LC retention time is 7.61 min.
As for `O=C(O)c1cc(O)c(O)c(O)c1` [Gallic acid], the LC retention time is 2.41 min.
In the case of `O=c1ccc2c(O)c3ccoc3cc2o1` [Bergaptol], the LC retention time is 17.9 min.
Take `C[n+]1cccc(C(=O)[O-])c1` [Trigonelline]: the LC retention time is 1.03 min.
Still for that read-out and setting: the same measure for `O=c1oc2cc(O)ccc2c2ccccc12` [Urolithin B]: 22.6 min; for `Cn1cnc2c1c(=O)[nH]c(=O)n2C` [Theobromine]: 2.67 min.

Another data set is described as follows: RP, Agilent InfinityLab Poroshell 120 EC-C18, 100 × 3 mm, 2.7 µm, 25 °C, 0.4 mL/min, estimated dead time 1.1 min; A: water + 0.1% formic acid, pH 3; B: acetonitrile + 0.1% formic acid, pH 3; gradient (min/%B) 0/5 10/25 20/40 24/90 25/90 26/5 30/5. Particulars: stereoisomer not certain.
In the case of `O=S(=O)(O)Oc1c(O)cccc1O` [Pyrogallol 2-O-sulfate], the LC retention time is 3.99 min.
Still for that read-out and setting: the same measure for `O=C(O)c1cc(O)c(O)c(O)c1` [Gallic acid]: 2.36 min; for `COc1ccc(C(=O)O)cc1OC` [Veratric acid]: 9.51 min; for `O=c1ccc2c(O)c3ccoc3cc2o1` [Bergaptol]: 13.9 min.
Still for that read-out and setting: the same measure for `O=c1oc2cc(O)ccc2c2ccccc12` [Urolithin B]: 18.8 min.
On the same count and under the same terms, the same measure for `Cn1cnc2c1c(=O)[nH]c(=O)n2C` [Theobromine]: 3.25 min; for `Oc1cc(O)c2c(c1)OC1(c3ccc(O)c(O)c3)Oc3cc(O)c4c(c3C2C1O)OC(c1ccc(O)c(O)c1)C(O)C4` (stereo not drawn) [Procyanidin A2]: 9.7 min.

A further data set in a line: RP, Agilent ZORBAX RRHD Eclipse Plus C18, 50 × 2.1 mm, 1.8 µm, 30 °C, 0.4 mL/min, estimated dead time 0.28 min; A: water + 0.1% formic acid, pH 3; B: acetonitrile + 0.1% formic acid, pH 3; gradient (min/%B) 0/1 5/10 8/25 9.1/99 10/99 12/99. Particulars: stereoisomer not certain.
In the case of `O=S(=O)(O)Oc1c(O)cccc1O` [Pyrogallol 2-O-sulfate], the LC retention time is 1.34 min.

These data come from the RepoRT retention time repository (doi:10.1016/j.foodchem.2021.129757).
